The values below come from patent EP3359195B1 (AB Science, priority 2015, dated 2017).

The test system of assay [1] is Ba/F3 cells expressing human or mouse wild-type c-Kit. The settings on record: read-out: IC50, stem cell factor-induced proliferation and c-Kit tyrosine phosphorylation; cited from earlier work.
In assay [2] the test system is severe systemic mastocytosis. The experiment in a line: post-hoc analysis of pooled phase 2 studies AB06013 and AB04010, cohort simulating severe systemic mastocytosis. To be noted: for Cumulative response rate (≥75 %) from W8 to W24, Hamilton or FIS / Cumulative response rate (≥75 %) from W8 to W24, Flushes or Pruritus: 2-handicap response rate; for Cumulative response rate (≥75 %) from W8 to W24, Hamilton or FIS: at least one handicap from [Hamilton or FIS]; for Cumulative response rate (≥75 %) from W8 to W24, Flushes or Pruritus: at least one handicap from [flushes or pruritus]. In kind it is in vivo, human.

In assay [3] the test system is Ba/F3 cells expressing the D816V c-Kit mutation. To be noted: read-out: IC50, proliferation; cited from earlier work.
Assay [4] deals with mastocytosis. To be noted: cited from earlier work; for major response: more than 50% improvement in symptoms and signs; for overall response rate: sum of CR, MR and PR.
Setting [5] is: missing data considered as failure (observed cases after W12).
Where [6] appears, read: entire evaluable study population (N=80).

SMILES strings stand for the structures. Where two headings read alike, the source gives them in different places.

For `Cc1ccc(NC(=O)c2ccc(CN3CCN(C)CC3)cc2)cc1Nc1nc(-c2cccnc2)cs1` [masitinib, 4-(4-methylpiperazin-1-ylmethyl)-N-[4-methyl-3-(4-pyridin-3ylthiazol-2-ylamino)phenyl]benzamide], the IC50 in assay [1] is 0.15 ± 0.08 µM. Moreover, in assay [2], the “Cumulative response rate (≥75 %) from W8 to W24, Hamilton or FIS” value is given as ~10% and the “Cumulative response rate (≥75 %) from W8 to W24, Flushes or Pruritus” value is reported as “approximately 40%”. In assay [2] (listed as Masitinib), the “Cumulative response rate (≥75 %) from W8 to W24, Hamilton or FIS” value is listed as 10.3% and the “Cumulative response rate (≥75 %) from W8 to W24, Flushes or Pruritus” value is on record as 38.8%. For the same compound, the “Overall response ≥ 75%” value in assay [2] (Week 12, at least one severe handicap among pruritus, flushes, fatigue or depression at baseline, missing data considered as failure, listed as Masitinib) was 25.0%. The “Overall response ≥ 75%” value in assay [2] (Week 12, patients with both pruritus score ≥9 and flushes per week ≥8 at baseline (4 patients, 8 handicaps)) is listed as 1/8 (12.5%). For the same compound, the “Overall response ≥ 75%” value in assay [2] (Week 24, at least one severe handicap among pruritus, flushes, fatigue or depression at baseline, missing data considered as failure) is reported as 23.5%. The “Overall response ≥ 75%” value in assay [2] (Week 24, at least one severe handicap among pruritus, flushes, fatigue or depression at baseline, missing data considered as failure, listed as Masitinib) was 23.5%. Further, the “Overall response ≥ 75%” value in assay [2] (Week 24, patients with both pruritus score ≥9 and flushes per week ≥8 at baseline (4 patients, 8 handicaps)) is recorded as 50%. Further, the “Cumulative response rate (≥75 %) from W8 to W24, Overall Response” value in assay [2] (at least one handicap among pruritus, flushes, fatigue or depression, W8, W12, W24) is listed as 26.1%. In addition, in assay [2] (setting [5]), the “Cumulative response rate (≥75 %) from W8 to W24, FIS only” value is on record as 8.0%; the “Cumulative response rate (≥75 %) from W8 to W24, Flushes only” value is on record as 52.8%; the “Cumulative response rate (≥75 %) from W8 to W24, Hamilton only” value is reported as 16.7%; the “Cumulative response rate (≥75 %) from W8 to W24, Micturition frequency (pollakiuria) only” value is reported as 1.8%. Further, in assay [2] (setting [5]), the “Cumulative response rate (≥75 %) from W8 to W24, Pruritus only” value was 28.6% and the “Cumulative response rate (≥75 %) from W8 to W24, Stool frequency (diarrhea) only” value was 18.4%. In addition, in assay [3], the IC50 is 5 ± 2 µM.
For the compound `Nc1nc(Cl)nc2c1ncn2[C@H]1C[C@H](O)[C@@H](CO)O1` [Cladribine], in assay [4] (setting [6]), the major response was 37% and the overall response rate was 55%. Also, in assay [4] (patients with ISM (N=22)), the overall response rate was 56%.
Regarding `Cc1ccc(NC(=O)c2ccc(CN3CCN(C)CC3)cc2)cc1Nc1nccc(-c2cccnc2)n1` [imatinib mesilate], in assay [4] (setting [6]), the major response is listed as 9% and the overall response rate is 18%. Moreover, the overall response rate in assay [4] (patients with ISM (N=22)) was 14%.
Take `NC(=O)NO` [hydroxyurea]: the major response in assay [4] (setting [6]) is 0%. Besides, the figures for the overall response rate in assay [4] (setting [6]) and in assay [4] (patients with ISM (N=22)) were 19% and 0%, respectively.
